Measured values taken from patent US20160067314A1, “COMPOSITIONS AND METHODS FOR INHIBITING CHEMORESISTANCE IN CANCER AND IMPROVING RESPONSE TO THERAPY” (UNIVERSITY OF VIRGINIA PATENT FOUNDATION, priority 2013, published 2016).

How the values were obtained:
FM3 = test: Ara-C concentration killing ~85% of adherent cells (preliminary experiments); assay type: cell-based, human; conditions: Ara-C for 3 days
Excerpt: (§1) FIG. 1. ALCAM correlates with detachment-induced therapy resistance. Relative ALCAM expression levels in melanoma measured by (A) microarray analysis and (B) RT-PCR. Expression levels are normalized to M21. Values are means±SE. (C) Relative ALCAM expression versus cell survival in additional melanoma cell lines. The graph represents detachment-induced resistance (“delta”) as the fold difference in survival between suspended versus adherent cells. Survival of adherent and suspended cells after treatment with chemotherapy (Ara-C) for 3 days was determined by replating on fibronectin. Concentrations of Ara-C were chosen for each cell line to kill ˜85% of adherent cells as determined in preliminary experiments. Concentrations were: A208 cells, 0.5 μM; A375.S2 cells, 0.3 μM; RPMI7951 cells, 5 μM, FM3: 10 μM). (D) Delta was plotted against ALCAM message level determined by RT-PCR. Values are means±SE, n>3.
(§2) The human melanoma cell lines; M21, VMM12, VMM15, VMM1, VMM5A, VMM18 were cultured as described [Molhoek, 2008; Schwartz, 2008]. RPMI7951, A208, and A375.S2 were cultured in DMEM/F12 medium supplemented with 5% heat inactivated fetal bovine serum, 15 mM HEPES and penicillin-streptomycin. FM3 cells were grown in DMEM supplemented with 10% fetal bovine serum and penicillin-streptomycin. Cell survival assays and colony assay were performed as described before [Schwartz, 2008].

RPMI7951 cells = test: as above; assay type: cell-based, human; conditions: Ara-C for 3 days
Excerpt: as §1, §2

A375.S2 cells = test: as above; assay type: cell-based, human; conditions: Ara-C for 3 days
Excerpt: as §1, §2

A208 cells = test: as above; assay type: cell-based, human; conditions: Ara-C for 3 days
Excerpt: as §1, §2

subcutaneous M21 tumors [1] = test: Mouse tumor growth, subcutaneous M21 tumors, AZN-L50 and/or cisplatin; assay type: in vivo; conditions: SCID mice, s.c. M21 tumors, i.p., two treatments ~1 week apart; cisplatin 8 then 3.5 mg/kg, AZN-L50 100 μg/mouse
Description: (A) Mice with palpable subcutaneous tumors were treated with cisplatin alone (CD), AZN-L50 (AZN) alone, or CD plus AZN-L50 (AZN+CD). Mice received 2 treatments 1 week apart. Tumor volume was then followed. Values are means±SE; n=8-11 mice.
Tumor generation and measurement was done as described [Schwartz, 2008]. Briefly male SCID mice (Charles River) were injected s.c. with 100,000 M21 cells. When tumors were first palpable, mice were injected I.P with cisplatin (8 mg/kg: first week and 3.5 mg/kg: second week), AZN-L50 (100 μg/mouse) or both for 2 consecutive weeks. The tumor volumes were recorded weekly.
All statistical analyses were done as described [Schwartz, 2008]. Briefly repeated measures models were used to compare tumor growth in control, cisplatin alone, AZN-L50 alone and cisplatin+AZN-L50 groups. These models account for the correlations among measurements taken from the same animal over time. We used linear models for the log-transformed tumor growth and the assumption that the correlation between measurements decreases with the amount of time between the measurements. F-tests based on contrasts were used to make specific comparisons between groups. All analyses were carried out in SAS 9.2 and GAUSS 10.0.

subcutaneous M21 tumors [2] = test: Mouse tumor growth, subcutaneous M21 tumors, FN-COMP and/or cisplatin; assay type: in vivo; conditions: SCID mice; for Tumor growth / tumor size: s.c. M21 tumors, i.p., three treatments ~1 week apart, cisplatin 8 then 3.5 mg/kg, FN-COMP 500 μg/mouse
Description: (§3) FIG. 4, Example 2—FN-COMP in chemotherapy in vivo. (A) SCID mice were injected with 500 μg of FN-COMP. At the indicated times, plasma was analyzed by western blotting for fibronectin (FN). (B) Mice with palpable subcutaneous tumors were treated with cisplatin (CD), FN-COMP (FNC) alone, or CD plus FNC. Mice received 3 successive treatments 1 week apart. Tumor volumes were then followed. Values are means±SE, n=10-15 mice. For CD vs. CD+FNC: *P<0.0031. The error bars are asymmetric because the analysis was done in the log-scale, and then converted back to the original scale. Qualitatively similar results were obtained in 2 independent experiments.
(§4) Tumor generation in 6-8 wk old male SCID mice (Charles River Laboratories) and tumor measurement were done as described. When tumors were first palpable, mice were injected intraperitoneally (i.p.) with cisplatin (8 mg/kg: first week and 3.5 mg/kg: second and third weeks), FN-COMP (500 μg/mouse) or both for 3 consecutive weeks. The tumor volumes were recorded weekly. To assay levels in the blood, SCID mice with no tumors were injected intraperitoneally with FN-COMP (500 μg/mouse). Blood was collected at 0, 3, 6, or 24 h post injection. Plasma was subjected to Western blotting with the indicated antibodies. All animal procedures were done according to our institutional Animal Care and Use Committee guidelines.
Statistical analyses were done as described. Briefly, repeated measures models were used to compare tumor growth in control, cisplatin alone, FN-COMP alone and cisplatin+FN-COMP groups. These models account for the correlations among measurements taken from the same animal over time. We used linear models for the log-transformed tumor growth and the assumption that the correlation between measurements decreases with the amount of time between the measurements. F-tests based on contrasts were used to make specific comparisons between groups. All analyses were carried out in SAS 9.2 and GAUSS 10.0.

M21 melanoma cells [3] = test: Short term survival assay after chemotherapy, adherent or suspended cells; assay type: cell-based, human; conditions: M21, siRNA transfected, 10 μM Ara-C, 3 days
Description: (§5) FIG. 2. ALCAM mediates detachment-induced therapy resistance. (A) ALCAM expression by RT-PCR in M21 melanoma cells after transfection with indicated siRNAs. Values are means±SE. (B) Proliferation of M21 cells expressing either ALCAM or control siRNA. 5×10^5 cells were plated and after 72 h counted. Values are means±SD, (C) Short term survival assays—cells transfected with the indicated siRNAs were treated with chemotherapy (M21:10 μM Ara-C; VMM12:10 μM cisplatin) while adherent (Ad) or suspended (Sus). Cell survival was assayed after 3 days. Values are means±SE, n>3. (D) Adherent or suspended M21 cells were treated with 10 μM Ara-C, then washed and re-plated, and colonies counted after 10 days. Values are means±SD, n=3. **P<0.01, *P<0.05
(§6) We next asked whether ALCAM might play a causal role in chemoresistance induced by loss of integrin-mediated cell adhesion. We therefore designed and tested several siRNA sequences. […] We next examined chemosensitivity in adherent and suspended M21 and VMM12 melanoma lines. Cells transfected with two distinct ALCAM siRNAs (#10 or #11), or control siRNA, were treated with chemotherapy for 3 days, then survival assayed by re-plating on fibronectin. […] Control siRNA had no effect in either condition.
(§7) ALCAM can mediate homophilic adhesion, as well as heterophilic adhesion to CD6, both of which are blocked by a monoclonal antibody, AZN-L50 (van Kempen J Biol Chem. 2001; 276:25783-90; Zimmerman Blood. 2006; 107:3212-20). […] M21 and VMM12 cells were subject to chemotherapy for 72 h while adherent or suspended, in the presence or absence of AZN-L50. Survival was then assayed as before.
as §2

VMM12 melanoma cells [4] = test: as above; assay type: cell-based, human; conditions: VMM12, siRNA transfected, 10 μM cisplatin, 3 days
Description: as §5, §6, §7, §2

[5] = FN-COMP levels in blood after intraperitoneal injection, plasma Western blot for fibronectin; assay type: in vivo; conditions: SCID mice, 500 μg/mouse i.p.
Description: as §3, §4

M21 melanoma cells [6] = test: Cell survival of non-adherent cells after FN-COMP and X-irradiation; assay type: cell-based, human; conditions: M21 suspended, FN-COMP 40 μg/ml 30-45 min, then 10 Gy X-irradiation, survival 72 h later
Description: (§8) (A) M21, (B) VMM12 or (C) VMM18 melanoma cells were left adherent (Ad) or detached and kept in suspension (Sus) for 1 h. Suspended cells were then treated with of FN-COMP (FNC) at 40 μg/ml for 30-45 min followed by treatment with either 10 Gy X-irradiation (A) or Ara-C at 10 μM (B and C). Cell survival was assayed 72 h later. Values are means } SE, n=3. *P<0.05.
(§9) The human melanoma cell lines; M21, VMM12, VMM18 were cultured as described. Cell survival assays and colony assay were performed as described. Cells were irradiated using an X-ray irradiator at a dose rate of 3.3 Gy/min.

integrin signaling = test: Tyrosine phosphorylation in suspended cells, Western blot with pY20; assay type: cell-based; conditions: suspended M21 melanoma or mouse 3T3 cells, FN-COMP 40 μg/ml
Description: FIG. 2, Example 2—FN-COMP stimulates signaling in vitro. Either M21 melanoma or mouse 3T3 cells were left adherent (Ad) or detached and kept in suspension (sus) for 1 h. Suspended cells were either treated with of FN-COMP at 40 μg/ml for indicated times or left untreated. Lysates were analyzed by Western blotting using antiphosphotyrosine antibody pY20. Tubulin was used as a loading control. n=2.
Cells were lysed as previously described. Proteins were separated on SDS-PAGE gels, transferred, blocked, and probed with the indicated primary antibodies. Blots were washed, incubated with secondary antibodies and developed using ECL reagents (Pierce) and film (Kodak). FN-COMP under reducing and non-reducing condition was loaded on SDSPAGE gels and was subjected electrophoresis. Gels were stained with Coomassie Blue to visualize the bands.

VMM18 melanoma cells = test: Cell survival of non-adherent cells after FN-COMP and Ara-C; assay type: cell-based, human; conditions: VMM18 suspended, FN-COMP 40 μg/ml 30-45 min, then Ara-C 10 μM, survival 72 h later
Description: as §8, §9

VMM12 melanoma cells [7] = test: as above; assay type: cell-based, human; conditions: VMM12 suspended, FN-COMP 40 μg/ml 30-45 min, then Ara-C 10 μM, survival 72 h later
Description: as §8, §9

human melanoma = conditions: mouse xenografts of human melanoma, previous report [7]; cited from earlier work
[8] = test system: focal adhesion kinase and p130cas; conditions: observed at nM concentrations; cited from earlier work

With Nc1ccn([C@@H]2O[C@H](CO)[C@@H](O)[C@@H]2O)c(=O)n1 [Ara-C, 1-β-D-arabinofuranosylcytosine] the “Concentration of Ara-C chosen to kill ˜85% of adherent cells” value (FM3) was 10 µM, the “Concentration of Ara-C chosen to kill ˜85% of adherent cells” value (RPMI7951 cells) was 5 µM and the “Concentration of Ara-C chosen to kill ˜85% of adherent cells” value (A375.S2 cells) was 0.3 µM. For the same molecule, the “Concentration of Ara-C chosen to kill ˜85% of adherent cells” value (A208 cells) was 0.5 µM.

In the case of N.N.[Cl][Pt][Cl] [cisplatin, cis-Dichlorodiamine platinum(II)], the “Tumor growth / tumor size” value (subcutaneous M21 tumors [1]) is reported as “Neither AZN-L50 alone nor cisplatin alone had significant effects on tumor growth” and the “Tumor growth / tumor size” value (subcutaneous M21 tumors [2]) is reported as “Neither FN-COMP alone nor cisplatin alone had significant effects on tumor growth”.

For “ALCAM siRNA #10: siRNA that targets ALCAM, 5-GGAAACUAUGUCUGCGAAA-3 (SEQ ID NO:5) (listed as RNA, chemistry not given here)”, the “Cell survival, adherent cells” value (M21 melanoma cells [3]) was “no effect”, the “Cell survival, suspended cells” value (M21 melanoma cells [3]) was “drastically reduced cell survival” and the “Cell survival, adherent cells” value (VMM12 melanoma cells [4]) was “no effect”. For the same molecule, the “Cell survival, suspended cells” value (VMM12 melanoma cells [4]) was “drastically reduced cell survival”.

For “ALCAM siRNA #11: siRNA that targets ALCAM, 5′-CACCTGCTCGGTGACATATTA-3′ (SEQ ID NO:4), described before [Hong, 2010] (other strand not cited, further chemistry not given here)”, the “Cell survival, adherent cells” value (M21 melanoma cells [3]) was “no effect”, the “Cell survival, suspended cells” value (M21 melanoma cells [3]) was “drastically reduced cell survival” and the “Cell survival, adherent cells” value (VMM12 melanoma cells [4]) was “no effect”. For the same molecule, the “Cell survival, suspended cells” value (VMM12 melanoma cells [4]) was “drastically reduced cell survival”.

With “FN-COMP: homo-pentameric construct of fibronectin peptides (type III repeats 5-11) linked by the assembly domain of COMP (amino acid residues 27-84)” the “Stability in blood after injection” value [5] was “at least 24 h”, the “Time of appearance in the blood” value [5] was ≤ 3 h and the “Response to therapy (radiosensitivity) of non-adherent cells” value (M21 melanoma cells [6]) was “improved chemo and radiosensitivity”. The “Side effects in the mice” value (subcutaneous M21 tumors [2]; 3 weekly i.p. treatments) was “not observed”, the “Tumor growth / tumor size” value (subcutaneous M21 tumors [2]) was “Neither FN-COMP alone nor cisplatin alone had significant effects on tumor growth” and the “Tyrosine phosphorylation (characteristic of integrin signaling)” value (integrin signaling) was “increased tyrosine phosphorylation of bands around 60, 75 and 125 kD”. For the same molecule, the “Response to therapy (chemosensitivity) of non-adherent cells” value (VMM18 melanoma cells) was “no effect” and the “Response to therapy (chemosensitivity) of non-adherent cells” value (VMM12 melanoma cells [7]) was “improved chemo and radiosensitivity”.

In the case of contortrostatin, the “Therapeutic responses when combined with chemotherapy” value (human melanoma) is given as “improved therapeutic responses” and the “Tyrosine phosphorylation of integrin targets” value [8] is given as “strongly increased”.
